According to patent US20150344426A1, “COMPOUNDS AND THERAPEUTIC USES THEREOF” (ALZHEIMER'S INSTITUTE OF AMERICA, INC., priority 2012, published 2015):
Values joined by “and” are separate entries in the source; they are usually repeats but may differ in a detail not shown here. Equal values may be shown once. Read-outs that look alike come from different tables or passages of the source.

What was measured:
[1] = Experiment 1: hepatic portal vein samples of rats after oral Example Compound 35; format: in vivo, female Sprague-Dawley rats; conditions: 20 mg/kg, portal vein; for [Par. Cmp. A]: listed as Par. Cmp. A
From the text: It is believed that Example Compound 35 metabolizes in vivo into Parent Compound A (i.e., it is believed that Example Compound 35 is a prodrug of Parent Compound A). The objective of this study was to determine the concentration of Example Compound 35 and Parent Compound A in hepatic portal vein samples of female Sprague-Dawley rats following oral administration of only Example Compound 35, and to quantify the extent of transport into hepatic portal circulation, if any, of Example Compound 35. A second objective was to determine the relative bioavailability of Parent Compound A in the portal vein following oral administration of Example Compound 35.
Experiment 1. Three female Sprague Dawley rats (200-215 g, Harlan Laboratories, Indianapolis, Ind.) with cannulae implanted surgically in the portal vein for blood sampling were used in this study. Example Compound 35, formulated in 50 mM Glycine pH 3.0 with 0.5% HPMC and 0.05% Tween-80, was administered by oral gavage (PO) at a dose of 20 mg/kg in a volume of 2 mL/kg. This dose is the molar equivalent of a 13.5 mg/kg dose of Parent Compound A. Portal blood samples were collected through the portal vein cannula from each animal at 0.25, 0.5, 1, 2, 4, and 8 hours following administration of compound. Samples were split into two fractions and one was supplemented with citrate buffer (final concentration 100 mM, pH 3.0) to stabilize Example Compound 35 and stop conversion of Example Compound 35 to Parent Compound A ex vivo during analysis. Samples were then processed to generate plasma and analyzed for Example Compound 35 by LC-MS/MS. Plasma derived from the second aliquot of blood was analyzed for Parent Compound A.
Pharmacokinetic parameters estimated for Parent Compound A included the maximum observed drug concentration (Cmax), time of maximum observed drug concentration (Tmax), apparent terminal half-life (t1/2), area under the concentration-time curve from time zero to 8 hours postdose (AUC(0-8)), and area under the concentration-time curve extrapolated to infinity (AUC(0-inf)). The bioavailability (% F) of Parent Compound A in portal vein samples relative to IV administration was also estimated.
Plasma samples were analyzed for Example Compound 35 or Parent Compound A concentration using a LC-MS/MS method. All sample runs met standard acceptance criteria for discovery purposes, and were based on a standard curve containing at least 7 points. At least half of quality control samples at each of the three concentrations tested, and two thirds of the entire quality control sample pool, were within 15% of their theoretical value. The r^2 value for each standard curve was ≧0.99. The quantitation range for the Example Compound 35 and Parent Compound A assays was 1 to 100 ng/mL and 5 to 2,500 ng/mL, respectively, using a 0.05 mL sample volume.
The data were entered into the PK software package WinNonlin® version 5.1.1. A complete data check was conducted to verify the accuracy of data entry.
Pharmacokinetic parameters were estimated on median plasma concentrations using extravascular input (PO). Nominal collection times after administration of compound were used for PK analyses. The use of a non-compartmental model provided an adequate fit of the data. Pharmacokinetic parameters estimated for Parent Compound A included the maximum observed drug concentration (Cmax), time of maximum observed drug concentration (Tmax), apparent terminal half-life (t1/2), apparent volume of distribution (Vz obs), apparent clearance (C1 obs), area under the concentration-time curve from time zero to 8 hours postdose of Example Compound 35 […], and area under the concentration-time curve extrapolated to infinity (AUC(0-inf)). Example Compound 35 was detected in only one 0.25 hour hepatic portal vein sample at 1.29 ng/mL. Any Example Compound 35 present in all of the other samples was below the quantitation limit of 1 ng/mL and pharmacokinetic parameters were not determined for those samples. […]

[2] = tested on: HT1080 human fibrosarcoma cancer cells; test: Anti-tumor activity in HT1080 human fibrosarcoma xenograft with twice daily dosing; format: in vivo; conditions: for tumor regression: by Day 8
Description: One million HT1080 cells were implanted subcutaneously in the right flank of female nude mice (Crl:NU-Fox1^nu). When the median tumor volume (MTV) was approximately 209 mm^3, mice were randomized into four cohorts of ten animals. […] All cohorts were dosed twice daily for 7 days. The mice were observed daily for mortality and signs of toxicity. Tumor volumes and body weights were determined from Days 1 to 22. The results are depicted in FIG. 4.

## O=C(NCc1cccnc1)Nc1ccc(OCCc2ccccc2-c2ccccc2)cc1 [Parent Compound A, 1-{4-[2-(Biphenyl-2-yl)ethoxy]phenyl}-3-(pyridin-3-ylmethyl)urea]
[1]; female, Sprague-Dawley, rat, plasma (hepatic portal vein), po, 0.25 hr after oral Example Compound 35 20 mg/kg, read-out: Median [Par. Cmp. A]
  concentration at 0.25 h: 961 ng/mL
[1]; female, Sprague-Dawley, rat, plasma (hepatic portal vein), po, 0.5 hr after oral Example Compound 35 20 mg/kg, read-out: Median [Par. Cmp. A]
  concentration at 0.5 h: 2820 ng/mL
[1]; female, Sprague-Dawley, rat, plasma (hepatic portal vein), po, 1 hr after oral Example Compound 35 20 mg/kg, read-out: Median [Par. Cmp. A]
  concentration at 1 h: 2460 ng/mL
[1]; female, Sprague-Dawley, rat, plasma (hepatic portal vein), po, 2 hr after oral Example Compound 35 20 mg/kg, individual rats, read-out: [Par. Cmp. A]
  concentration at 2 h: 1800 ng/mL
[1]; female, Sprague-Dawley, rat, plasma (hepatic portal vein), po, 2 hr after oral Example Compound 35 20 mg/kg, read-out: Median [Par. Cmp. A]
  concentration at 2 h: 1930 ng/mL
[1]; female, Sprague-Dawley, rat, plasma (hepatic portal vein), po, 4 hr after oral Example Compound 35 20 mg/kg, read-out: Median [Par. Cmp. A]
  concentration at 4 h: 1000 ng/mL
[1]; female, Sprague-Dawley, rat, plasma (hepatic portal vein), po, 8 hr after oral Example Compound 35 20 mg/kg, read-out: Median [Par. Cmp. A]
  concentration at 8 h: 41 ng/mL
[1]; 0.25 hr after oral Example Compound 35 20 mg/kg, individual rats
  [Par. Cmp. A]: 417.4 ng/mL and 2,306.7 ng/mL and 961.4 ng/mL
[1]; 0.5 hr after oral Example Compound 35 20 mg/kg, individual rats
  [Par. Cmp. A]: 2,819.4 ng/mL and 2,818.9 ng/mL and 577.7 ng/mL
[1]; 1 hr after oral Example Compound 35 20 mg/kg, individual rats
  [Par. Cmp. A]: 1,064.4 ng/mL and 2,455.1 ng/mL and 3,237.2 ng/mL
[1]; 2 hr after oral Example Compound 35 20 mg/kg, individual rats
  [Par. Cmp. A]: 2,398.5 ng/mL and 1,930.2 ng/mL
[1]; 4 hr after oral Example Compound 35 20 mg/kg, individual rats
  [Par. Cmp. A]: 1,004.3 ng/mL and 2,254.2 ng/mL and 177.4 ng/mL
[1]; 8 hr after oral Example Compound 35 20 mg/kg, individual rats
  [Par. Cmp. A]: 41.0 ng/mL and 378.5 ng/mL and 15.9 ng/mL
[2]; 3 mg/kg orally twice daily for seven days, Day 21
  tumor growth inhibition relative to vehicle: 60%
[2]; 3 mg/kg orally twice daily for seven days, end of dosing, Day 9
  MTV increase: 221%
[2]; 3 mg/kg orally twice daily for seven days, end of the study, Day 21
  MTV increase: 622%
[2]; 4 mg/kg orally twice daily for seven days, Day 21
  tumor growth inhibition relative to vehicle: 81%
[2]; 4 mg/kg orally twice daily for seven days
  tumor regression: 13%
[2]; 4 mg/kg orally twice daily for seven days, end of dosing, Day 9
  MTV as % of the initial value: 87%
[2]; 4 mg/kg orally twice daily for seven days, end of the study, Day 21
  MTV increase: 296%
[2]; 5 mg/kg orally twice daily for seven days, Day 21
  tumor growth inhibition relative to vehicle: 85%
[2]; 5 mg/kg orally twice daily for seven days
  tumor regression: 22%
[2]; 5 mg/kg orally twice daily for seven days, end of dosing, Day 9
  MTV as % of the initial value: 78%
[2]; 5 mg/kg orally twice daily for seven days, end of the study, Day 21
  MTV increase: 235%
[2]; 7 mg/kg orally twice daily for seven days, Day 21
  tumor growth inhibition relative to vehicle: 89%
[2]; 7 mg/kg orally twice daily for seven days
  tumor regression: 78%
[2]; 7 mg/kg orally twice daily for seven days, end of dosing, Day 9
  MTV as % of the initial value: 22%
[2]; 7 mg/kg orally twice daily for seven days, end of the study, Day 21
  MTV increase: 175%
[2]; 9 mg/kg orally twice daily for seven days, Day 21
  tumor growth inhibition relative to vehicle: 95%
[2]; 9 mg/kg orally twice daily for seven days
  tumor regression: 61%
[2]; 9 mg/kg orally twice daily for seven days, end of dosing, Day 9
  MTV as % of the initial value: 39%
[2]; 9 mg/kg orally twice daily for seven days, end of the study, Day 21
  MTV increase: 85%
[2]; Parent Compound A study, 3 mg/kg, cohort of ten
  animals with tumor volumes exceeding 1,500 mm^3 euthanized: three
[2]; Parent Compound A study, 4 mg/kg, cohort of ten, two found dead, one euthanized for tumor volume
  deaths: three
[2]; Parent Compound A study, 5 mg/kg, cohort of ten
  animals with no detectable tumor by the end of the study: One
[2]; Parent Compound A study, 7 mg/kg, cohort of ten
  animals with no detectable tumor by the end of the study: One
[2]; Parent Compound A study, 9 mg/kg, cohort of ten
  animals with no detectable tumor by the end of the study: One
[2]; administered orally, twice daily, all doses tested
  anti-tumor activity in the HT1080 xenograft model (summary statement): significant anti-tumor activity
[2]; over the course of the study, all doses tested, orally twice daily
  maximal reduction in median body weight: < 10 % of the initial weight
[2]; xenograft mice, all doses tested, orally twice daily
  Tolerability: well tolerated
